According to patent publication US8119635B2, “Diazabicyclic central nervous system active agents” (Abbott Laboratories, priority 2000, dated 2012):
pKi: −log10 of the molar value. Structures can show the parent of a compound that is named as a salt. Where two headings read alike, the source gives them in different places.

Columns and labels:
[1] = biological target: T1, neuronal nicotinic acetylcholine receptors (Rattus norvegicus, UniProt P09483+P12390); test: Binding of [3H]-cytisine to neuronal nicotinic acetylcholine receptors, crude synaptic membranes from whole rat brain
T1 construct: crude synaptic membrane preparations from whole rat brain; from tissue; host or cells: whole rat brain, crude synaptic membranes
T1 sequence (P09483 31-630): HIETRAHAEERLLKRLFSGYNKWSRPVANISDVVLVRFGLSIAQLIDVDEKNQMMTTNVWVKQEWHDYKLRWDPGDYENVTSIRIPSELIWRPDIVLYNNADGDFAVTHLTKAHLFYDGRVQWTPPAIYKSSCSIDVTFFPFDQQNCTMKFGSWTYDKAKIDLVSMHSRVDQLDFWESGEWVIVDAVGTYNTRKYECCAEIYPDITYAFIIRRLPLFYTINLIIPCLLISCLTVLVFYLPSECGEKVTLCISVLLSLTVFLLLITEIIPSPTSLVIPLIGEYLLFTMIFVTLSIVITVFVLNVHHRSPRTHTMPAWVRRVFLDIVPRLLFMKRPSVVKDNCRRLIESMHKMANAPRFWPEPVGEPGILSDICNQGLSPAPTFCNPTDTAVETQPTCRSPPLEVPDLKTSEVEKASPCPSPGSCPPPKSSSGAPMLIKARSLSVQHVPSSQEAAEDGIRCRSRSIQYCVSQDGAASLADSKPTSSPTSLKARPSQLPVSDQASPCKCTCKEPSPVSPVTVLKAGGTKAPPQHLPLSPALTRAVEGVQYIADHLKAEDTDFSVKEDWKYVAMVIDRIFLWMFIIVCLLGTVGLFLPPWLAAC
T1 sequence (P12390 25-500): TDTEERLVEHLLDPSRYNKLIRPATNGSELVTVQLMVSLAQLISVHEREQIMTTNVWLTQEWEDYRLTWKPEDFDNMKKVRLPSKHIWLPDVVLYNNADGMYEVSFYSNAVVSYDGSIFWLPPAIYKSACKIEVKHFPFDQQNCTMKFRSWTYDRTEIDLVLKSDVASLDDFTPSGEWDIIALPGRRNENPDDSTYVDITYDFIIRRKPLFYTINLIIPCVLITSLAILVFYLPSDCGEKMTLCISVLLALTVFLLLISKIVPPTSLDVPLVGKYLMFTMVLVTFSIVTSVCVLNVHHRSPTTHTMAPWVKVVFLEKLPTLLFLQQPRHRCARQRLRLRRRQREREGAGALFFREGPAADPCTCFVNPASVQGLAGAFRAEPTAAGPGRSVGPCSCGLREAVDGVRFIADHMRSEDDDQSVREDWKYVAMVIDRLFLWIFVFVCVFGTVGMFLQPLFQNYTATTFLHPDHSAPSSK
Procedure: The In Vitro protocols for determination of nicotinic acetylcholine channel receptor binding potencies of ligands were determined as follows.
Washed membranes were stored at −80° C. prior to use. Frozen aliquots were slowly thawed and resuspended in 20 volumes of buffer (containing: 120 mM NaCl, 5 mM KCl, 2 mM MgCl2, 2 mM CaCl2 and 50 mM Tris-Cl, pH 7.4 @[…]). After centrifuging at 20,000×g for 15 minutes, the pellets were resuspended in 30 volumes of buffer.
The test compounds were dissolved in water to make 10 mM stock solutions. Each solution was then diluted (1:100) with buffer (as above) and further taken through seven serial log dilutions to produce test solutions from 10^−5 to 10^−11 M.
Samples were incubated for 60 minutes at 4° C., then rapidly filtered through Whatman GF/B filters presoaked in 0.5% polyethyleneimine using 3×4 mL of ice-cold buffer. The filters are counted in 4 mL of Ecolume® (ICN). Nonspecific binding was determined in the presence of 10 μM (−)-nicotine and values were expressed as a percentage of total binding. IC50 values were determined with the RS-1 (BBN) nonlinear least squares curve-fitting program and IC50 values were converted to Ki values using the Cheng and Prusoff correction (Ki=IC50/(1+[ligand]/Kd of ligand).

Male Sprague-Dawley rats = test: Formalin test (analgesia); assay type: in vivo; settings: Rattus norvegicus, ip, intraperitoneally 5 minutes before injection of 50 μL 5% formalin into rear paw, nocifensive behaviors, read-out: (MED) minimally effective dose, formalin test
Procedure: Another in vivo protocol utilized to determine the effectiveness of nicotinic acetylcholine receptor ligands as analgesic agents was the formalin test.
Male Sprague-Dawley rats (Charles River, Portage, Mich.) weighing 200 to 400 grams were used for all experiments. After a 20 minute period of acclimation to individual cages, 50 μL of a 5% formalin solution was injected subcutaneous into the dorsal aspect of one of the rear paws and the rats were then returned to the clear observation cages suspended above mirror panels. […] Phase 1 of the formalin test was defined as the period of time immediately after injection of formalin until 10 minutes after the formalin injection (i.e., 0-10 minutes after formalin). Phase 2 was defined as the 20 minute period from 30 to 50 minutes after formalin injection. The investigator recorded nocifensive behaviors in the injected paw of four animals during the session by observing each animal for one 15 second observation period during each 1 minute interval. Nocifensive behaviors recorded included flinching, licking or biting the injected paw. In dose-response studies, the test compound (or saline) was administered intraperitoneally 5 minutes before injection of formalin.

[2] = [3H]-CYT 1.25 nM, whole rat brain membranes, 60 minutes at 4° C., IC50 converted to Ki by Cheng and Prusoff correction, read-out: Average Ki

Structure (SMILES)	pKi [1]	minimal effective dose (Male Sprague-Dawley rats) [µmol/kg]	pKi [1, 2]
c1cncc(N2C[C@@H]3CN[C@@H]3C2)c1 (relative stereo) [Example 38, (cis)-3-(3-pyridinyl)-3,6-diazabicyclo[3.2.0]heptane bis(4-methylbenzenesulfonate)]	9.80	> 6.2	–
COc1cc(N2C[C@H]3CCN[C@H]3C2)cnc1Br [Example 43, (3aR,6aR)-5-(6-bromo-5-methoxy-3-pyridinyl)octahydropyrrolo[3,4-b]pyrrole]	9.52	6.2	–
c1cncc(N2C[C@@H]3CCNC[C@@H]32)c1 (relative stereo) [Example 44, (cis)-8-(3-pyridinyl)-3,8-diazabicyclo[4.2.0]octane bis(4-methylbenzenesulfonate)]	9.64	6.2	–
N#Cc1cncc(N2CC[C@H]3CN[C@H]3C2)c1 (relative stereo) [Example 62, (cis)-5-[3,8-diazabicyclo[4.2.0]oct-3-yl]nicotinonitrile fumarate]	10.00	0.19	–
N#Cc1cncc(N2C[C@@H]3CCNC[C@@H]32)c1 [Example 50, 5-[(1R,6S)-3,8-diazabicyclo[4.2.0]oct-8-yl]nicotinonitrile fumarate]	9.29	6.2	–
Cc1cncc(N2C[C@H]3CCN[C@H]3C2)c1 [Example 58, (3aR,6aR)-5-(5-methyl-3-pyridinyl)octahydropyrrolo[3,4-b]pyrrole trihydrochloride]	9.28	1.9	–
Brc1cncc(N2C[C@H]3CNC[C@H]32)c1 [Example 53, (1R,5S)-6-(5-bromo-3-pyridinyl)-3,6-diazabicyclo[3.2.0]heptane fumarate]	8.51	> 19	–
C=Cc1cc(N2C[C@H]3CCN[C@H]3C2)cnc1Br [Example 65, (3aR,6aR)-5-(6-bromo-5-vinyl-3-pyridinyl)octahydropyrrolo[3,4-b]pyrrole dihydrochloride]	8.51	> 19	–
C#Cc1cncc(N2C[C@@H]3CNC[C@@H]32)c1 [Example 68, (1S,5R)-6-(5-ethynyl-3-pyridinyl)-3,6-diazabicyclo[3.2.0]heptane fumarate]	9.21	> 19	–
Clc1cc(N2C[C@H]3CNC[C@H]32)cnc1Cl [Example 85, (1R,5S)-6-(5,6-dichloro-3-pyridinyl)-3,6-diazabicyclo[3.2.0]heptane fumarate]	9.57	> 19	–
C=Cc1cncc(N2C[C@H]3CCN[C@H]3C2)c1 [Example 56, (3aR,6aR)-5-(5-vinyl-3-pyridinyl)octahydropyrrolo[3,4-b]pyrrole dihydrochloride]	9.21	1.9	–
c1cncc(N2CC3CNCC32)c1 (stereo not drawn) [Example 40, (cis)-6-(3′-pyridinyl)-3,6-diazabicyclo[3.2.0]heptane fumarate]	8.21	1.9	–
N#Cc1cncc(N2C[C@H]3CCN[C@H]3C2)c1 [Example 37, 5-((3aR,6aR)-hexahydropyrrolo[3,4-b]pyrrol-5(1H)-yl)nicotinonitrile]	8.92	6.2	–
Brc1cncc(N2C[C@H]3CCN[C@H]3C2)c1 [Example 36, (3aR,6aR)-5-(5-bromo-3-pyridinyl)octahydropyrrolo[3,4-b]pyrrole dihydrochloride]	9.77	6.2	–
Clc1ccc(N2C[C@@H]3CN[C@@H]3C2)cn1 (relative stereo) [Example 41, (cis)-3-(6-chloro-3-pyridinyl)-3,6-diazabicyclo[3.2.0]heptane fumarate]	8.72	> 1.9	–
Brc1cncc(N2C[C@@H]3CNC[C@@H]32)c1 [Example 71, (1S,5R)-6-(5-bromo-3-pyridinyl)-3,6-diazabicyclo[3.2.0]heptane]	8.82	> 19	–
Clc1ccc(N2C[C@@H]3CNC[C@@H]32)cn1 [Example 54, (1S,5R)-6-(6-chloro-3-pyridinyl)-3,6-diazabicyclo[3.2.0]heptane fumarate]	8.89	1.9	–

Structure (SMILES)	pKi [1]	minimal effective dose (Male Sprague-Dawley rats) [µmol/kg]	pKi [1, 2]
C=Cc1cc(N2C[C@@H]3CNC[C@@H]32)cnc1Br [Example 72, (1S,5R)-6-(6-bromo-5-vinyl-3-pyridinyl)-3,6-diazabicyclo[3.2.0]heptane fumarate]	9.22	> 19	–
C=Cc1cncc(N2C[C@@H]3CNC[C@@H]32)c1 [Example 69, (1S,5R)-6-(5-vinyl-3-pyridinyl)-3,6-diazabicyclo[3.2.0]heptane fumarate]	8.49	> 19	–
CCc1cncc(N2C[C@H]3CCN[C@H]3C2)c1 [Example 63, (3aR,6aR)-5-(5-ethyl-3-pyridinyl)octahydropyrrolo[3,4-b]pyrrole]	9.25	> 19	–
N#Cc1cc(N2C[C@H]3CNC[C@H]32)cnc1Br [Example 76, 2-bromo-5-[(1R,5S)-3,6-diazabicyclo[3.2.0]hept-6-yl]nicotinonitrile fumarate]	9.55	1.9	–
N#Cc1cncc(N2C[C@H]3CNC[C@H]32)c1 [Example 74, 5-[(1R,5S)-3,6-diazabicyclo[3.2.0]hept-6-yl]nicotinonitrile bis(4-methylbenzenesulfonate)]	8.49	1.9	–
N#Cc1cc(N2C[C@H]3CCN[C@H]3C2)cnc1Br [Example 51, 5-((3aR,6aR)-hexahydropyrrolo[3,4-b]pyrrol-5(1H)-yl)-2-bromonicotinonitrile fumarate]	9.92	0.62	–
COc1cncc(N2C[C@H]3CNC[C@H]32)c1 [Example 86, (1R,5S)-6-(5-methoxy-3-pyridinyl)-3,6-diazabicyclo[3.2.0]heptane 4-methylbenzenesulfonate]	9.12	> 19	–
Clc1ccc(N2C[C@H]3CCNC[C@H]32)cn1 [Example 47, (1S,6R)-8-(6-chloro-3-pyridinyl)-3,8-diazabicyclo[4.2.0]octane difumarate]	–	1.9	9.10
Cc1cc(N2C[C@H]3CNC[C@H]32)cnc1Cl [Example 87, (1R,5S)-6-(6-chloro-5-methyl-3-pyridinyl)-3,6-diazabicyclo[3.2.0]heptane 4-methylbenzenesulfonate]	9.70	6.2	–
N#Cc1cncc(N2C[C@@H]3CNC[C@@H]32)c1 [Example 70, 5-[(1S,5R)-3,6-diazabicyclo[3.2.0]hept-6-yl]nicotinonitrile fumarate]	9.07	> 19	–
c1cncc(N2C[C@@H]3CCN[C@@H]3C2)c1 [Example 30, (3aS,6aS)-5-(3-pyridinyl)octahydropyrrolo[3,4-b]pyrrole 4-methylbenzenesulfonate]	–	–	8.54
Cc1cc(N2C[C@H]3CCN[C@H]3C2)cnc1Br [Example 60, (3aR,6aR)-5-(6-bromo-5-methyl-3-pyridinyl)octahydropyrrolo[3,4-b]pyrrole dihydrochloride]	9.96	0.62	–
CN1C[C@H]2CCN(c3ccc(Cl)nc3)[C@H]2C1 (relative stereo) [Example 17, cis-1-(6-chloro-3-pyridinyl)-5-methyloctahydropyrrolo[3,4-b]pyrrole hydrochloride]	7.51	–	–
c1cncc(N2C[C@@H]3CCNC[C@@H]32)c1 [Example 92, (1R,6S)-8-(3-pyridinyl)-3,8-diazabicyclo[4.2.0]octane 4-methylbenzenesulfonate]	–	–	9.92
OCc1cc(N2C[C@H]3CCN[C@H]3C2)cnc1Br [Example 64, [5-((3aR,6aR)-hexahydropyrrolo[3,4-b]pyrrol-5(1H)-yl)-2-bromo-3-pyridinyl]methanol fumarate]	8.96	> 19	–
c1cncc(N2C[C@@H]3CNC[C@@H]32)c1 [Example 55, (1S,5R)-6-(3-pyridinyl)-3,6-diazabicyclo[3.2.0]heptane fumarate]	9.14	> 19	–
COCc1cc(N2C[C@H]3CCN[C@H]3C2)cnc1Br [Example 67, (3aR,6aR)-5-[6-bromo-5-(methoxymethyl)-3-pyridinyl]octahydropyrrolo[3,4-b]pyrrole fumarate]	9.00	19	–
